Laboratory results: ChEMBL document CHEMBL6153174, “Design and Synthesis of Novel Deazapurine DNMT 1 Inhibitors with In Vivo Efficacy in DLBCL” (J Med Chem, 2025)
Active and inactive are the calls of the source. No cut-off for these calls is given here.

Legend:
TMD8 [1] = assay: Induction of apoptosis in human TMD8 cells assessed as late apoptotic cells at 5 uM measured after 48 hrs by annexin-V/FITC and PI staining based flow cytometry analysis (reference value: 5.13%); format: functional
DOHH-2 [2] = assay: Induction of apoptosis in human DOHH-2 cells assessed as late apoptotic cells at 1 uM measured after 48 hrs by annexin-V/FITC and PI staining based flow cytometry analysis (reference value: 3.66%); format: functional
[3] = molecular target: DNA (cytosine-5)-methyltransferase 3B (Homo sapiens, UniProt Q9UBC3); assay: Inhibition of DNMT3B (unknown origin) preincubated for 15 mins followed by substrate and [3H-SAM] addition and measured after 60 mins by microbeta analysis
TMD8 [4] = assay: Induction of cell cycle arrest in human TMD8 cells assessed as accumulation of cells at G0-G1 phase at 0.25 uM incubated for 24 hrs by PI staining based flow cytometry analysis (reference value: 40.7%); format: functional
[5] = Antitumor activity against human TMD8 cells harbouring […] xenografted in mouse model assessed as body weight change at 10 mg/kg, iv administered three times a week in presence of chidamide relative to control; format: functional
[6] = Clearance in Sprague-Dawley rat at 10 mg/kg, iv measured upto 24 hrs by LC/MS/MS analysis; format: ADME, organism-based; details: in vivo
DOHH-2 [7] = assay: Induction of apoptosis in human DOHH-2 cells assessed as late apoptotic cells at 0.25 uM measured after 48 hrs by annexin-V/FITC and PI staining based flow cytometry analysis (reference value: 3.66%); format: functional
[8] = Upregulation of BAX mRNA level in human DOHH-2 cells assessed as fold change at 300 nM measured after 6 days by PCR analysis; format: functional; details: time 6 day
A549 = assay: Antiproliferative activity against human A549 cells assessed as inhibition of cell viability measured after 72 hrs by MTT assay; format: functional, cell-based; details: A549, 72 h
DOHH-2 [9] = assay: Induction of cell cycle arrest in human DOHH-2 cells assessed as accumulation of cells at G0-G1 phase at 0.25 uM incubated for 24 hrs by PI staining based flow cytometry analysis (reference value: 27.1%); format: functional
TMD8 [10] = assay: Antitumor activity against human TMD8 cells xenografted in mouse model assessed as inhibition of DNA methylation at 10 mg/kg, iv administered three times a week; format: functional, organism-based
HeLa = assay: Antiproliferative activity against human HeLa cells assessed as inhibition of cell viability measured after 72 hrs by MTT assay; format: functional, cell-based
THP-1 = assay: Antiproliferative activity against human THP-1 cells assessed as inhibition of cell viability measured after 72 hrs by MTT assay; format: functional, cell-based; details: THP-1, 72 h

CN1CCC(Nc2nc(-c3ccnc(F)c3)nc3c2ccn3CCCN2CCCC2)CC1
Activity (TMD8 [1]): 17%
Activity (DOHH-2 [2]): 13.6%
IC50 [3]: > 20000 nM
Activity (TMD8 [4]): 37.9%
Activity [5]: 1.1%
clearance [6]: 123 mL/min/kg
Activity (DOHH-2 [7]): 7.58%
fold change (FC) [8]: 1.93
IC50 (A549): 720 nM
Activity (DOHH-2 [9]): 28.6%
Activity (TMD8 [10]): Active
IC50 (HeLa): 3020 nM
IC50 (THP-1): 2370 nM
